Values quoted from earlier work in patent US20260021122A1, “CANNABINOIDS AND USES THEREOF IN TREATMENT OF A DISEASE” (TECHNION RESEARCH & DEVELOPMENT FOUNDATION LIMITED, priority 2022, published 2026).

Key:
MDSCs = settings: one study, literature; cited from earlier work
[1] = tested on: triple-negative breast cancer; settings: conditioned media from CBD-treated cancer cells, literature; cited from earlier work

Compound	antitumor effects (MDSCs)	suppressive immune cell population of MDSCs (MDSCs)	levels of CCL3 [1]	levels of Granulocyte-macrophage (GM)-CSF [1]
CCCCC/C=C\C/C=C\C/C=C\C/C=C\CCCC(=O)OC(CO)CO [2-AG, 2-arachidonoylglycerol]	exhibits direct antitumor effects	increasing the suppressive immune cell population of MDSCs	–	–
C=C(C)[C@@H]1CCC(C)=C[C@H]1c1c(O)cc(CCCCC)cc1O [CBD, Cannabidiol]	–	–	lowered the levels	lowered the levels
